Results reported in patent US11419806B2, “Prebiotic oral care methods using a saccharide” (Colgate-Palmolive Company, priority 2013, dated 2022).

Tests used:
Experiment in all cases: Twenty-four hour biofilm growth (crystal violet)
Assay type in all cases: cell-based
A. actinomycetemcomitans = tested on: A. actinomycetemcomitans
Experimental: (§1) The increase in biofilm formation of the tested bacteria in response to selected saccharides (D-turanose, D-lactitol, myo-inositol, and N-acetyl-D-mannosamine) was investigated by setting up biofilm growth assays in a nutritionally rich medium (brain heart infusion broth (BHI), Oxoid), over 24 hours. Late exponential growth phase liquid cultures were prepared by transferring the respective bacterium from blood agar plates to BHI and overnight incubation at 37° C. in an anaerobic atmosphere for A. viscosus, V. parvula, P. gingivalis, P. intermedia, T. forsythia, A. naeslundii, and C. sputigena, and in a 5% CO2 environment for S. salivarius, S. sanguinis, S. mitis, A. actinomycetemcomitans, S. mutans, and S. gordonii. Overnight cultures were transferred to BHI and adjusted to a concentration of 1×10^7 CFU/ml by measuring the optical density at 600 nm (OD600) (BioRad SmartSpec 3000). For each strain, 200 μl of the bacterial suspension was added to a 96-well plate containing 20 μl of the respective saccharides. Final concentrations of the saccharides were set to 5, 10, 20 and 25 μmol/ml. […] Additionally, for each bacterium tested, a background control, to correct for background staining, was added. This background control contained the bacterium tested and 0.03 weight % chlorhexidine, as an antiseptic. Plates were incubated as previously described. After 24 hrs the supernatant was removed from the wells of the plates. The wells were washed twice with 1×100 μL PBS (phosphate buffered saline), fixed for 20 minutes with 96% vol. ethanol (96% vol. solution in water) and the biofilm retained at the bottom of the wells was stained with 1 weight % crystal violet (1 weight % solution in water). The bound dye was dissolved with 5% vol. acetic acid (5% vol. solution in water). Quantification of the stained biofilm was performed by measuring the absorbance at 630 nm using a Multiskan Ascent microplate reader (Thermo Scientific).
(§2) The experiment was carried out on three different days (thus providing 3 biological replicas) and each day the experiment was carried out in quadruple (thus providing 4 technical replicas) for each combination of bacterium with saccharide and for each control. For each day and for each combination, the average (mean) of the values obtained (as detailed above) for the four technical replicas was calculated to provide a single value for each combination on each day. The values shown in Tables 7a, 7b, 8a, 8b, below, are the average (mean) of the three single values obtained for each combination of bacterium with saccharide.

A. naeslundii = tested on: A. naeslundii
Experimental: as §1, §2

A. viscosus = tested on: A. viscosus
Experimental: as §1, §2

C. sputigena = tested on: C. sputigena
Experimental: as §1, §2

P. gingivalis = tested on: P. gingivalis
Experimental: as §1, §2

P. intermedia = tested on: P. intermedia
Experimental: as §1, §2

S. gordonii = tested on: S. gordonii
Experimental: as §1, §2

S. mitis = tested on: S. mitis
Experimental: as §1, §2

S. mutans = conditions: for biofilm growth: OD 630 nm at 24 hrs divided by OD of control (control = 1): S mutans
Experimental: as §1, §2

S. salivarius = tested on: S. salivarius
Experimental: as §1, §2

S. sanguinis = tested on: S. sanguinis
Experimental: as §1, §2

T. forsythia = tested on: T. forsythia
Experimental: as §1, §2

V. parvula = tested on: V. parvula
Experimental: as §1, §2

OC[C@@H](O)[C@@H](O[C@H]1O[C@H](CO)[C@H](O)[C@H](O)[C@H]1O)[C@H](O)[C@@H](O)CO [D-Lactitol, 4-O-α-D-galactopyranosyl-D-glucitol]
biofilm growth: OD 630 nm at 24 hrs divided by OD of control (control = 1) (A. actinomycetemcomitans; 5 μmol/ml): 0.6593 | biofilm growth: OD 630 nm at 24 hrs divided by OD of control (control = 1) (A. actinomycetemcomitans; 10 μmol/ml): 0.6496 | biofilm growth: OD 630 nm at 24 hrs divided by OD of control (control = 1) (A. actinomycetemcomitans; 20 μmol/ml): 0.8502 | biofilm growth: OD 630 nm at 24 hrs divided by OD of control (control = 1) (A. actinomycetemcomitans; 25 μmol/ml): 0.8372 | biofilm growth: OD 630 nm at 24 hrs divided by OD of control (control = 1) (A. naeslundii; 5 μmol/ml): 1.0191 | biofilm growth: OD 630 nm at 24 hrs divided by OD of control (control = 1) (A. naeslundii; 10 μmol/ml): 1.0015 | biofilm growth: OD 630 nm at 24 hrs divided by OD of control (control = 1) (A. naeslundii; 20 μmol/ml): 1.0337 | biofilm growth: OD 630 nm at 24 hrs divided by OD of control (control = 1) (A. naeslundii; 25 μmol/ml): 1.0428 | biofilm growth: OD 630 nm at 24 hrs divided by OD of control (control = 1) (A. viscosus; 5 μmol/ml): 0.6832 | biofilm growth: OD 630 nm at 24 hrs divided by OD of control (control = 1) (A. viscosus; 10 μmol/ml): 0.7502 | biofilm growth: OD 630 nm at 24 hrs divided by OD of control (control = 1) (A. viscosus; 20 μmol/ml): 0.9528 | biofilm growth: OD 630 nm at 24 hrs divided by OD of control (control = 1) (A. viscosus; 25 μmol/ml): 0.9153 | biofilm growth: OD 630 nm at 24 hrs divided by OD of control (control = 1) (C. sputigena; 5 μmol/ml): 0.5867 | biofilm growth: OD 630 nm at 24 hrs divided by OD of control (control = 1) (C. sputigena; 10 μmol/ml): 0.5658 | biofilm growth: OD 630 nm at 24 hrs divided by OD of control (control = 1) (C. sputigena; 20 μmol/ml): 0.6841 | biofilm growth: OD 630 nm at 24 hrs divided by OD of control (control = 1) (C. sputigena; 25 μmol/ml): 0.7591 | biofilm growth: OD 630 nm at 24 hrs divided by OD of control (control = 1) (P. gingivalis; 5 μmol/ml): 0.9536 | biofilm growth: OD 630 nm at 24 hrs divided by OD of control (control = 1) (P. gingivalis; 10 μmol/ml): 0.9616 | biofilm growth: OD 630 nm at 24 hrs divided by OD of control (control = 1) (P. gingivalis; 20 μmol/ml): 0.8995 | biofilm growth: OD 630 nm at 24 hrs divided by OD of control (control = 1) (P. gingivalis; 25 μmol/ml): 0.9701 | biofilm growth: OD 630 nm at 24 hrs divided by OD of control (control = 1) (P. intermedia; 5 μmol/ml): 1.0504 | biofilm growth: OD 630 nm at 24 hrs divided by OD of control (control = 1) (P. intermedia; 10 μmol/ml): 1.0396 | biofilm growth: OD 630 nm at 24 hrs divided by OD of control (control = 1) (P. intermedia; 20 μmol/ml): 1.1500 | biofilm growth: OD 630 nm at 24 hrs divided by OD of control (control = 1) (P. intermedia; 25 μmol/ml): 1.1288 | biofilm growth: OD 630 nm at 24 hrs divided by OD of control (control = 1) (S. gordonii; 5 μmol/ml): 0.6036 | biofilm growth: OD 630 nm at 24 hrs divided by OD of control (control = 1) (S. gordonii; 10 μmol/ml): 0.5959 | biofilm growth: OD 630 nm at 24 hrs divided by OD of control (control = 1) (S. gordonii; 20 μmol/ml): 0.4885 | biofilm growth: OD 630 nm at 24 hrs divided by OD of control (control = 1) (S. gordonii; 25 μmol/ml): 0.5149 | biofilm growth: OD 630 nm at 24 hrs divided by OD of control (control = 1) (S. mitis; 5 μmol/ml): 0.6696 | biofilm growth: OD 630 nm at 24 hrs divided by OD of control (control = 1) (S. mitis; 10 μmol/ml): 0.5919 | biofilm growth: OD 630 nm at 24 hrs divided by OD of control (control = 1) (S. mitis; 20 μmol/ml): 0.8007 | biofilm growth: OD 630 nm at 24 hrs divided by OD of control (control = 1) (S. mitis; 25 μmol/ml): 0.8340 | stimulation of biofilm formation of S. mutans (S. mutans; Example 3): does not stimulate | biofilm growth: OD 630 nm at 24 hrs divided by OD of control (control = 1) (S. mutans; 5 μmol/ml): 0.9767 | biofilm growth: OD 630 nm at 24 hrs divided by OD of control (control = 1) (S. mutans; 10 μmol/ml): 0.9333 | biofilm growth: OD 630 nm at 24 hrs divided by OD of control (control = 1) (S. mutans; 20 μmol/ml): 1.1068 | biofilm growth: OD 630 nm at 24 hrs divided by OD of control (control = 1) (S. mutans; 25 μmol/ml): 1.0108 | biofilm growth: OD 630 nm at 24 hrs divided by OD of control (control = 1) (S. salivarius; 5 μmol/ml): 2.1471 | biofilm growth: OD 630 nm at 24 hrs divided by OD of control (control = 1) (S. salivarius; 10 μmol/ml): 4.8849 | biofilm growth: OD 630 nm at 24 hrs divided by OD of control (control = 1) (S. salivarius; 20 μmol/ml): 5.5726 | biofilm growth: OD 630 nm at 24 hrs divided by OD of control (control = 1) (S. salivarius; 25 μmol/ml): 6.4158 | biofilm growth: OD 630 nm at 24 hrs divided by OD of control (control = 1) (S. sanguinis; 5 μmol/ml): 1.2160 | biofilm growth: OD 630 nm at 24 hrs divided by OD of control (control = 1) (S. sanguinis; 10 μmol/ml): 1.5548 | biofilm growth: OD 630 nm at 24 hrs divided by OD of control (control = 1) (S. sanguinis; 20 μmol/ml): 1.8523 | biofilm growth: OD 630 nm at 24 hrs divided by OD of control (control = 1) (S. sanguinis; 25 μmol/ml): 2.2341 | biofilm growth: OD 630 nm at 24 hrs divided by OD of control (control = 1) (T. forsythia; 5 μmol/ml): 0.5843 | biofilm growth: OD 630 nm at 24 hrs divided by OD of control (control = 1) (T. forsythia; 10 μmol/ml): 0.5942 | biofilm growth: OD 630 nm at 24 hrs divided by OD of control (control = 1) (T. forsythia; 20 μmol/ml): 0.7398 | biofilm growth: OD 630 nm at 24 hrs divided by OD of control (control = 1) (T. forsythia; 25 μmol/ml): 0.6158 | biofilm growth: OD 630 nm at 24 hrs divided by OD of control (control = 1) (V. parvula; 5 μmol/ml): 1.0022 | biofilm growth: OD 630 nm at 24 hrs divided by OD of control (control = 1) (V. parvula; 10 μmol/ml): 1.0212 | biofilm growth: OD 630 nm at 24 hrs divided by OD of control (control = 1) (V. parvula; 20 μmol/ml): 0.9658 | biofilm growth: OD 630 nm at 24 hrs divided by OD of control (control = 1) (V. parvula; 25 μmol/ml): 0.9859
